Data set [1] has as its target T1, Prostaglandin G/H synthase 1 (Ovis aries, UniProt P05979).
T1 sequence (P05979 whole entry): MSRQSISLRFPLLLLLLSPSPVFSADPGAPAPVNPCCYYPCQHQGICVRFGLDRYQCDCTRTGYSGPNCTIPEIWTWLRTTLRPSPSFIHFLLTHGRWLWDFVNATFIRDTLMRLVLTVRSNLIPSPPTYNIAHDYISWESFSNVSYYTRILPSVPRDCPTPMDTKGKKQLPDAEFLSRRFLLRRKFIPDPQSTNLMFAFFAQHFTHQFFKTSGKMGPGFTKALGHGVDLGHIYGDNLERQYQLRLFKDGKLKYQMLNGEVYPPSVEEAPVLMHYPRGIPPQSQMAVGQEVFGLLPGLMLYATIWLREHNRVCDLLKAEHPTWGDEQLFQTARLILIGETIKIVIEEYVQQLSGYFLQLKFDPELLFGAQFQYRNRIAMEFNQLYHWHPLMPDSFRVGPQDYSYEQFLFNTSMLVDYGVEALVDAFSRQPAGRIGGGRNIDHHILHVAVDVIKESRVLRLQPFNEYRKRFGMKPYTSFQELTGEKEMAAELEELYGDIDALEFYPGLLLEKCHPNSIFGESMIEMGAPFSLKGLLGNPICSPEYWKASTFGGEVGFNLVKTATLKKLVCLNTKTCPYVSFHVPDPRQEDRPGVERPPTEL
Description: Inhibition of ovine COX-1 by colorimetric assay

Data set [2] addresses T2, Prostaglandin G/H synthase 2 (Homo sapiens, UniProt P35354).
T2 sequence (P35354 whole entry): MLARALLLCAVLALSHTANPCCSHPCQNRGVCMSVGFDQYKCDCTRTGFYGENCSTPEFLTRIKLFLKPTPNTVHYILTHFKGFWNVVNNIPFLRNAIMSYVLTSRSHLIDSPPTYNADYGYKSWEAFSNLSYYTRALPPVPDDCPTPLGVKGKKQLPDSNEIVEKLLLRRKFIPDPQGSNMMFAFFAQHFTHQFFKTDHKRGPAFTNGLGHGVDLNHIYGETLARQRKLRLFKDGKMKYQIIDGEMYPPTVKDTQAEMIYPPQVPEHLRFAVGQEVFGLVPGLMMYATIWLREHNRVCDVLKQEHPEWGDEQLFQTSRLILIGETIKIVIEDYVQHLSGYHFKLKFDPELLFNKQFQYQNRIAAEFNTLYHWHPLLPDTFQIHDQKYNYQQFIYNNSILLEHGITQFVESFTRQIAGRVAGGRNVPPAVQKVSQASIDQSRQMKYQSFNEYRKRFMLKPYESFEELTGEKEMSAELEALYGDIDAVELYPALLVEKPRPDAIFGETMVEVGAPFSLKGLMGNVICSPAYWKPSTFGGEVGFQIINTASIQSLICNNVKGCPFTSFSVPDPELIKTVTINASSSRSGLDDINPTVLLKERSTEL
Description: Inhibition of human COX-2 by colorimetric assay

Data set [3] is described as follows: in vitro. The following applies: chlorocebus sabaeus, vero.
Description: Cytotoxicity against African green monkey Vero cells assessed as cell viability at 100 uM measured after 24 hrs by MTT assay relative to control
A short description of data set [4]: in vitro. Conditions: human, erythrocyte.
Description: Hemolytic activity in human red blood cells assessed as hemolysis at 100 uM measured after 3 hrs by microplate reader assay relative to control
A further data set has as its system Platelet. Kind of data set: cells. It counts as functional, cell-based. Conditions: Homo sapiens, 2 min.
The target of data set [5] is T2, Prostaglandin G/H synthase 2. This is another data set of the same source.
Description: Inhibition of recombinant human COX-2 measured after 5 mins by absorbance based analysis
The target of data set [6] is T1, Prostaglandin G/H synthase 1. The source holds these as a separate data set.
Description: Inhibition of ovine COX-1 measured after 5 mins by absorbance based analysis
The target in data set [7] is T2, Prostaglandin G/H synthase 2. The source holds these as a separate data set.
The target of data set [8] is T1, Prostaglandin G/H synthase 1. This is another data set of the same source.
Description: Inhibition of ovine COX-1

Description for Platelet: Antiplatelet activity in human platelets assessed as inhibition of arachidonic acid-induced platelet aggregation measured after 2 mins by turbidimetric analysis

As usually defined, the IC50 is the point on the concentration scale where inhibition reaches its midpoint. A low value points to greater potency. `COc1ccc(-c2noc(CC(=O)O)c2-c2ccc(OC(C)(C)C)cc2)cc1`: the IC50 in [1] and in data set [2] was over 50 µM throughout.
For `CCCCOc1ccc(-c2c(-c3ccc(OC)cc3)noc2C)cc1`, the IC50 in data set [1] and in data set [2] was over 50 µM throughout.
By viability is commonly meant the share of living cells, or the viability signal relative to a control. Take `CCOc1ccc(-c2noc(C)c2-c2ccc(OCC)cc2)cc1`: the IC50 in [1] is 0.23 µM; in data set [2], over 50 µM; in the data set with Platelet it was 1 µM. The same compound gave a viability at 24 h, 100 µM in “in vitro [3]” of over 70%. In “in vitro [4]”, this compound yielded a hemolysis at 3 h, 100 µM of 0%.
As for `COc1ccc(-c2noc(C)c2-c2ccc(OC(C)(C)C)cc2)cc1`, the IC50 in data set [1] and in [2] was over 50 µM throughout.
Consider `CCCCOc1ccc(-c2c(-c3ccc(OC)cc3)noc2CC(=O)O)cc1`, for which the IC50 in data set [1] worked out at 0.32 µM; in [2] it was 0.45 µM.
As for `O=C(O)Cc1onc(-c2ccc(OCc3ccccc3)cc2)c1-c1ccc(OCc2ccccc2)cc1`, the IC50 in [1] and in data set [2] was over 50 µM each time.
For `COc1ccc(-c2noc(CC(=O)O)c2-c2ccc(Oc3ccccc3)cc2)cc1`, the IC50 in data set [1] and in [2] was over 50 µM throughout.
As to `CCOc1ccc(-c2c(-c3ccc(OC)cc3)noc2CC(=O)O)cc1`, the figures for the half-maximal inhibitory concentration (IC50) (in data set [1]; in data set [2]; in the data set with Platelet) were 0.12 µM, over 50 µM and 29.5 µM, respectively. The compound further yielded a viability at 24 h, 100 µM in “in vitro [3]” of over 70%. The hemolysis at 3 h, 100 µM in “in vitro [4]” was 0%.
For `C=CCc1cccc(-c2nc(-c3ccccc3Cl)c(-c3ccccc3Cl)[nH]2)c1OC(C)=O`, the IC50 in data set [5] and in data set [6] was over 100 µM throughout.
`Cc1onc(-c2ccc(Cl)o2)c1-c1ccccc1`: in data set [7], the IC50 was over 100 µM.
For the compound `COc1ccc(-c2noc(C)c2-c2ccc(OCc3ccccc3)cc2)cc1`, the IC50 in [1] and in [2] was over 50 µM in each case.
In turn, `CC(=O)Oc1ccccc1C(=O)O` [ASPIRIN] displayed an IC50 with Platelet of 36.2 µM.
Regarding `CCCOc1ccc(-c2noc(CC(=O)O)c2-c2ccc(OCCC)cc2)cc1`, the half-maximal inhibitory concentration (IC50) in data set [1] was over 50 µM; in [2], 3.6 µM.
As for `CCc1onc(-c2ccccc2)c1-c1ccccc1`, the IC50 in [8] is 0.05 µM; in [7], over 1.49 µM.
Regarding `CC(C)(C)Oc1ccc(-c2noc(CC(=O)O)c2-c2ccc(OC(C)(C)C)cc2)cc1`, the IC50 in data set [1] and in data set [2] was over 50 µM in each case.
As to `COc1ccc(-c2nc(C(=O)N3CCN(C)CC3)sc2-c2ccc(OC)cc2)cc1` [FR-122047], the IC50 in data set [8] amounted to 0.028 µM.
For the compound `CCCOc1ccc(-c2c(-c3ccc(OC)cc3)noc2CC(=O)O)cc1`, the IC50 in [1] amounted to 0.079 µM; in data set [2], 6.9 µM; with Platelet it was 72.1 µM. This compound gave a viability at 24 h, 100 µM in “in vitro [3]” of over 70%. In “in vitro [4]”, this compound displayed a hemolysis at 3 h, 100 µM of 0%.
Turning to `CCCCOc1ccc(-c2noc(CC(=O)O)c2-c2ccc(OCCCC)cc2)cc1`, the IC50 in data set [1] was 0.053 µM; in data set [2], over 50 µM; in the data set with Platelet, over 100 µM. In the data set “in vitro [3]”, the viability at 24 h, 100 µM is over 70%. In the data set “in vitro [4]”, the hemolysis at 3 h, 100 µM was found to be 0%.
For the compound `Cc1onc(-c2ccc(OC(C)(C)C)cc2)c1-c1ccc(OC(C)(C)C)cc1`, the IC50 in [1] and in data set [2] was over 50 µM in each case.
`COc1ccc(-c2noc(CC(=O)O)c2-c2ccc(OCc3ccccc3)cc2)cc1`: the IC50 in data set [1] is 0.45 µM; in data set [2] it was over 50 µM; with Platelet, over 100 µM. In addition, the viability at 24 h, 100 µM in “in vitro [3]” was over 70%. For the same compound, the hemolysis at 3 h, 100 µM in the data set “in vitro [4]” was 0%.
The like results for `CCOc1ccc(-c2noc(CC(=O)O)c2-c2ccc(OCC)cc2)cc1` were, in that order, 0.12 µM, over 50 µM, 0.7 µM, over 70% and 0%.
Take `CCCOc1ccc(-c2noc(C)c2-c2ccc(OCCC)cc2)cc1`: the IC50 in data set [1] and in data set [2] was over 50 µM in each case.
Consider `O=C(O)Cc1onc(-c2ccc(Oc3ccccc3)cc2)c1-c1ccc(Oc2ccccc2)cc1`, for which the IC50 in data set [1] and in [2] was over 50 µM each time.
Take `Cc1onc(-c2ccc(OCc3ccccc3)cc2)c1-c1ccc(OCc2ccccc2)cc1`: the IC50 in data set [1] and in data set [2] was over 50 µM each time.
On to `CCOc1ccc(-c2c(-c3ccc(OC)cc3)noc2C)cc1`, for which the IC50 in data set [1] was 0.046 µM; in [2], over 50 µM; in the data set with Platelet it was 2.5 µM. In the data set “in vitro [3]”, this compound gave a viability at 24 h, 100 µM of 64%.
As for `CCCCOc1ccc(-c2noc(C)c2-c2ccc(OCCCC)cc2)cc1`, the IC50 in data set [1] and in [2] was over 50 µM in each case.
Turning to `Cc1onc(-c2ccccc2)c1-c1ccccc1`, in data set [8], the midpoint of inhibition, the IC50, lay at 0.09 µM.
For `CCCOc1ccc(-c2c(-c3ccc(OC)cc3)noc2C)cc1`, the values for the IC50 in data set [1] and in [2] were 1.3 µM and over 50 µM, respectively. In addition, in the data set “in vitro [4]”, the hemolysis at 3 h, 100 µM stood at 0%.
In the case of `C=CCc1cccc(-c2nc(-c3ccccc3Cl)c(-c3ccccc3Cl)[nH]2)c1OC(=O)COC`, the IC50 in data set [5] was over 100 µM.
On to `Cc1onc(-c2ccc(Oc3ccccc3)cc2)c1-c1ccc(Oc2ccccc2)cc1`, for which the IC50 in data set [1] and in data set [2] was over 50 µM each time.
`COc1ccc(-c2noc(C)c2-c2ccc(Oc3ccccc3)cc2)cc1`: the IC50 in data set [1] and in data set [2] was over 50 µM each time.
Regarding `CCOc1ccc(N)cc1C(=O)Nc1cccc(C(F)(F)F)c1`, the IC50 was 3.2 µM in data set [8] and over 100 µM in [7].

The values above are taken from ChEMBL document CHEMBL5543077, “A further pocket or conformational plasticity by mapping COX-1 catalytic site through modified-mofezolac structure-inhibitory activity relationships and their antiplatelet behavior” (Eur J Med Chem, 2024).
